Like-named read-outs stand apart in the source and are kept apart here.
Experiments:
[1] = target: T1, EGFR (Homo sapiens, UniProt P00533); assay: EGFR in-cell Western (ICW) screening protocol; format: cell-based; design: unit not given here; details: for ICW Screen: initial screen
T1 construct: endogenous in cells; host or cells: A431 cells (ATCC CRL-1555)
Method in brief: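 Serum-starved cells treated with compound 4 h at 37 °C, then stimulated with EGF (20 or 0 ng/ml solution added) in its continued presence. In-cell Western on fixed cells: phospho-EGFR (800 channel) normalised to total EGFR (700 channel), % inhibition calculated against EGF-stimulated and unstimulated no-compound wells.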

[2] = tested on: epithelial carcinoma A431 cell line; assay: MTT Cell Proliferation Assay, A431 cell line; format: cell-based; details: for MTT (10 Point follow-up) ratio / MTT-72 h A431/MDBK (ratio): value in brackets; for MTT (10 Point follow-up) ratio: numerically MDBK over A431; for IC50: Homo sapiens; for MTT-72 h A431/MDBK (ratio): numerically MDBK value over A431 value
Method in brief: (§1)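 Cells plated overnight, then exposed 3 days at 37 °C, 5% CO2 to compound in growth medium with 0.5% FBS and 0.5% DMSO final (0.5% DMSO as control).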

[3] = tested on: MDBK line; assay: MTT Cell Proliferation Assay, MDBK line; format: cell-based, bovine; details: Bos taurus, MDBK
Method in brief: as §1

[4] = A-431, 10 point follow-up, first value of pair, read-out: MTT (10 Point follow-up) A431
[5] = 10 point follow-up, second value of pair, read-out: MTT (10 Point follow-up) MDBK
[6] = A-431, 72 h, 72 h, first value of A431/MDBK pair, read-out: MTT-72 h A431
[7] = 72 h, second value of A431/MDBK pair, read-out: MTT-72 h MDBK

T1 sequence (P00533 25-1210): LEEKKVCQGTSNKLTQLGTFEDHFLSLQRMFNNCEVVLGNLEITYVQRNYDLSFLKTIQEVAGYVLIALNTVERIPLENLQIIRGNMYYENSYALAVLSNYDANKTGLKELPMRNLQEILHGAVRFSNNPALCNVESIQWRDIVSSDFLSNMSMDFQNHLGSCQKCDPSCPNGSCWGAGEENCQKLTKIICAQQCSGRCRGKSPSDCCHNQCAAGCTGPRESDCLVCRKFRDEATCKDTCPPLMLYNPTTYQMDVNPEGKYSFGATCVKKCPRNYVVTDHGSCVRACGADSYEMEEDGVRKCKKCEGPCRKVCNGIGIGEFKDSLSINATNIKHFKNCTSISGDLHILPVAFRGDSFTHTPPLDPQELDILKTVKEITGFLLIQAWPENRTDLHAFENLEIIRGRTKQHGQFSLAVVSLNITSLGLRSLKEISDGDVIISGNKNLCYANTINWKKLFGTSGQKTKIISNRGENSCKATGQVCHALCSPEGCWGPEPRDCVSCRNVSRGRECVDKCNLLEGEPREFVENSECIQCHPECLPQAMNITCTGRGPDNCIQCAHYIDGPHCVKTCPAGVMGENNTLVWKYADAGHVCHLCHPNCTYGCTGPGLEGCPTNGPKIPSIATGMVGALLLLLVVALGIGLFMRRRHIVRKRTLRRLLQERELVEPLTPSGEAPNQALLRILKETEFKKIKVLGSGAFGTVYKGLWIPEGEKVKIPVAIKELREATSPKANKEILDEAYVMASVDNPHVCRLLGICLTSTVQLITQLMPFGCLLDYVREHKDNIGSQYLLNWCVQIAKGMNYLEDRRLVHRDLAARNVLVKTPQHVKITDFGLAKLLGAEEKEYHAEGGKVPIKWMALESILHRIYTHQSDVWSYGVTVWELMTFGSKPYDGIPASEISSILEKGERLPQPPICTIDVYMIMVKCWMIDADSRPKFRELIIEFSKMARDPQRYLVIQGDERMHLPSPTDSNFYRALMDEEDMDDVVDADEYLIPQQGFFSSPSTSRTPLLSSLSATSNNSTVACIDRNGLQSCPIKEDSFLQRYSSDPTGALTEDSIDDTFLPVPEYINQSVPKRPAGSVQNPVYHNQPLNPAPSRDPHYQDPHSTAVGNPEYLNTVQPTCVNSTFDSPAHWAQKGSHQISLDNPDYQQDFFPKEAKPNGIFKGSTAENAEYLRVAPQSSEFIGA

Structure (SMILES) | ICW Screen [1] | MTT (10 Point follow-up) ratio [2] | IC50 [2, 4] | IC50 [3, 5] | ICW Re-Test [1] | MTT-72 h A431/MDBK (ratio) ([2]; 72 h) | IC50 [2, 6] | IC50 [3, 7]
COc1ccc(Br)cc1C(Nc1ccccn1)c1cc(Cl)c2cccnc2c1O (centres unmarked) [compound 10108] | 15.91 | 1.53 | 1.13 µM | 1.73 µM | – | – | – | –
CCOc1cc(C(Nc2cccnc2)c2ccc3cccnc3c2O)ccc1O (centres unmarked) [compound 10936] | 37.96 | – | – | – | 57 | 1.05 | 5.43 µM | 5.68 µM
Oc1c(C(Nc2ccccn2)c2cccc(Br)c2)cc(Cl)c2cccnc12 (centres unmarked) [compound 10100] | 18.12 | 1.62 | 1.06 µM | 1.72 µM | – | – | – | –
Oc1c(C(Nc2ccccn2)c2cccnc2)cc(Cl)c2cccnc12 (centres unmarked) [compound 10955] | 37.33 | – | – | – | 53.58 | 0.97 | 5.5 µM | 5.36 µM
Oc1c(C(Nc2ccccn2)c2cccc(F)c2)cc(Cl)c2cccnc12 (centres unmarked) [compound 10090] | 21.53 | 1.48 | 1.76 µM | 2.6 µM | – | 1.06 | 5.28 µM | 5.62 µM
Oc1ccccc1NC(c1cccnc1)c1ccc2cccnc2c1O (centres unmarked) [compound 11151] | 35.56 | – | – | – | 45.66 | 0.76 | 8.25 µM | 6.23 µM
COc1ccc(NC(c2cccnc2)c2ccc3cccnc3c2O)cc1 (centres unmarked) [compound 11152] | 60.41 | – | – | – | 48.96 | 0.92 | 9 µM | 8.24 µM
Oc1c(C(Nc2nccs2)c2cccs2)ccc2cccnc12 (centres unmarked) [compound 10602] | 57.72 | 0.71 | 3.3 µM | 2.35 µM | 43.06 | 0.65 | 3.56 µM | 2.31 µM
COc1ccc(C(Nc2cc(C)ccn2)c2ccc3cccnc3c2O)cc1C (centres unmarked) [compound 10005] | 43.76 | 1.20 | 3.45 µM | 4.14 µM | 33.76 | 1.07 | 3.44 µM | 3.69 µM
Cc1cccc(NC(c2cccc(C)n2)c2ccc3ccc(C)nc3c2O)n1 (centres unmarked) [compound 10976] | 33.22 | – | – | – | 21.78 | 0.78 | 25.1 µM | 19.7 µM
CCOc1cc(C(NC(=O)C(C)(C)C)c2cc([N+](=O)[O-])c3cccnc3c2O)ccc1O (centres unmarked) [compound 10941] | 27.61 | 1.56 | 1.12 µM | 1.75 µM | 67.81 | 1.02 | 5.92 µM | 6.05 µM
Cc1ccccc1C(Nc1ccccn1)c1ccc2cccnc2c1O (centres unmarked) [compound 10019] | 33.75 | 0.71 | 4.49 µM | 3.21 µM | – | 0.98 | 5.35 µM | 5.25 µM
Oc1c(C(Nc2ccccn2)c2cccc(Cl)c2)cc(Cl)c2cccnc12 (centres unmarked) [compound 10097] | 28.02 | 1.66 | 1.25 µM | 2.07 µM | – | 0.98 | 6.23 µM | 6.09 µM
Cc1ccc2ccc(C(Nc3ccccn3)c3ccc(C)c(C)c3)c(O)c2n1 (centres unmarked) [compound 10034] | 27.1 | – | – | – | – | 0.60 | 12 µM | 7.16 µM
Cc1ccc(C(Nc2cccc(C)n2)c2ccc3cccnc3c2O)cc1 (centres unmarked) [compound 10054] | 35.84 | – | – | – | – | 1.00 | 5.47 µM | 5.46 µM
Cc1ccc2ccc(C(Nc3ccccn3)c3cccc(O)c3)c(O)c2n1 (centres unmarked) [compound 1970] | 26.33 | – | – | – | – | 0.81 | 39.7 µM | 32.4 µM
Oc1cc2cccnc2cc1C(Nc1ccccn1)c1cccs1 (centres unmarked) [compound 10938] | 40.36 | – | – | – | 24.99 | 0.88 | 25.3 µM | 22.1 µM
Oc1c(C(Nc2ccccn2)c2ccccc2Cl)ccc2cccnc12 (centres unmarked) [compound 10482] | 16.45 | 1.28 | 0.356 µM | 0.455 µM | – | – | – | –
CCOc1ccccc1C(Nc1ccccn1)c1ccc2ccc(C)nc2c1O (centres unmarked) [compound 10049] | 35.57 | – | – | – | – | 0.94 | 12.2 µM | 11.5 µM
Oc1c(C(c2ccccn2)N2CCN(Cc3ccccc3)CC2)ccc2cccnc12 (centres unmarked) [compound 10534] | 28.31 | – | – | – | – | 0.85 | 10.8 µM | 9.18 µM
COc1ccc(C(Nc2cc(C)ccn2)c2ccc3cccnc3c2O)cc1O (centres unmarked) [compound 1978] | 63.53 | – | – | – | 41.95 | 1.47 | 7.3 µM | 10.7 µM
Cc1ccnc(NC(c2ccc(Cl)cc2)c2ccc3cccnc3c2O)c1 (centres unmarked) [compound 10481] | 25.82 | 1.54 | 0.798 µM | 1.23 µM | – | – | – | –
O=[N+]([O-])c1ccccc1C(Nc1ccccn1)c1ccc2cccnc2c1O (centres unmarked) [compound 10042] | 47.99 | 0.69 | 9.62 µM | 6.63 µM | −8.06 | 1.00 | 1.49 µM | 1.49 µM
CCN1CCN(C(c2cccnc2)c2ccc3cccnc3c2O)CC1 (centres unmarked) [compound 10550] | 31.84 | – | – | – | – | 0.79 | 9.59 µM | 7.6 µM
CCOc1ccc(C(Nc2cccnc2)c2cc(Cl)c3cccnc3c2O)cc1 (centres unmarked) [compound 10945] | 82.22 | 0.76 | – | – | 81.41 | 0.67 | 2.79 µM | 1.87 µM
COC(=O)c1ccc(NC(c2cccs2)c2ccc3cccnc3c2O)cc1 (centres unmarked) [compound 11015] | 64.21 | – | – | – | 57.97 | 0.76 | 5.07 µM | 3.87 µM
CCOc1cc(C(Nc2cc(C)ccn2)c2ccc3cccnc3c2O)ccc1OC (centres unmarked) [compound 1991] | 47.06 | – | – | – | 30.75 | 0.79 | 9.08 µM | 7.14 µM
CCOc1ccc(C(Nc2cc(C)ccn2)c2ccc3cccnc3c2O)cc1OC (centres unmarked) [compound 10017] | 44.27 | 0.85 | 3.52 µM | 2.98 µM | 30.11 | 0.94 | 3.72 µM | 3.51 µM

From patent US9073858B2, “Methods of targeted drug development” (priority 2010, dated 2015)
